Assay results: patent CN114790169A, “四氢喹啉相关二环类化合物及其应用” (Guangzhou Institute of Biomedicine and Health of CAS, priority 2016, dated 2017)

Experiments:
RORα = target: T1, RORα (Homo sapiens, UniProt P35398); settings: literature, in words; cited from earlier work
T1 sequence (P35398 1-523): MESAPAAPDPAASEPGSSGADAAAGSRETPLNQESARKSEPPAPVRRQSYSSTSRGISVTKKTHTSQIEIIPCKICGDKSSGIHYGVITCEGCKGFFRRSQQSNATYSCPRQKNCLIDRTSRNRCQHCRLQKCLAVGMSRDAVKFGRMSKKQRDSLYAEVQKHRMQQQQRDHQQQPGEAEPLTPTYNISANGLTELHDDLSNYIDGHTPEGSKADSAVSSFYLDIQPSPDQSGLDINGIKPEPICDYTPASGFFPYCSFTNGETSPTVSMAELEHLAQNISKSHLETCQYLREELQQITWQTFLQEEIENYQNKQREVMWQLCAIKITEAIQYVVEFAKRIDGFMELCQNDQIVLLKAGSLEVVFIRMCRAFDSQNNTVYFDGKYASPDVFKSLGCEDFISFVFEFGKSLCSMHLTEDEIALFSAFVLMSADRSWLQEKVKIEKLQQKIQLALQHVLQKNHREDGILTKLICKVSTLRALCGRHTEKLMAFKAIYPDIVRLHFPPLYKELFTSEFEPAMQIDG

[1] = test system: other nuclear receptors (LXRα/β, FXR, PXR) [其他核受体 (LXRα/β,FXR,PXR)]; settings: literature, in words; cited from earlier work
RORγ = target: T2, RORγ (Homo sapiens, UniProt P51449); settings: literature, in words; cited from earlier work
T2 sequence (P51449 1-518): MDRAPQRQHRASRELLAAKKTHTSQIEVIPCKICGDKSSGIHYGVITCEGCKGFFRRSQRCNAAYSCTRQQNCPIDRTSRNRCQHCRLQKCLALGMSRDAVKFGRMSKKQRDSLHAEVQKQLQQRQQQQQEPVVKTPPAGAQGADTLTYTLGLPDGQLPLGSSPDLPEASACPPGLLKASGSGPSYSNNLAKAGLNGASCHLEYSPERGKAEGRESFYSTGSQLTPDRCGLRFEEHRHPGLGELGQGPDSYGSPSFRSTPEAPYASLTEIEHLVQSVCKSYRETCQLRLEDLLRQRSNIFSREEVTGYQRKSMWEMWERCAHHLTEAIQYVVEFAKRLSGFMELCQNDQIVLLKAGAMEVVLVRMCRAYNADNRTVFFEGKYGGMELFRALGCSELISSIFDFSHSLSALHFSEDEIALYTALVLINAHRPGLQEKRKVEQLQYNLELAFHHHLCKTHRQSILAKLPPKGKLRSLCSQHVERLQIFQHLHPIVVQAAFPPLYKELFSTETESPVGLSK

[2] = literature, in words; cited from earlier work
[3] = target: T3, nuclear receptor RORγ [核受体RORγ] (Homo sapiens, UniProt P51449); assay: Dual-luciferase reporter assay, inhibition of nuclear receptor RORγ at cell level in 293T cells (Gal4-RORγLBD); assay type: cell-based; settings: for IC50: inhibitory activity against RORγ at cell level, 293T cells, 24 h incubation with compound; for inhibitory activity compared with reference drug: luciferase, RORγ cell level, reference drug T1317
T3 construct: 重组质粒:Gal4-RORγLBD:25ng; expressed in transfected cells; host or cells: 293T (human kidney epithelial cell line)
T3 sequence (P51449 269-508 limits assumed): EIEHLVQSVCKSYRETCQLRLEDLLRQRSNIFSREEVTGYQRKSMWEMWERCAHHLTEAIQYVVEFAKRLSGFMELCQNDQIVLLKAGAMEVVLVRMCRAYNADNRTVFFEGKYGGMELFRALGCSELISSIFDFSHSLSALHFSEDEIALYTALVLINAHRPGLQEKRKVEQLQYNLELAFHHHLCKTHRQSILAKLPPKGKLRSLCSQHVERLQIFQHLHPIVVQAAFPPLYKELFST

[4] = target: T4, glucocorticoid receptor [糖皮质激素受体] (Homo sapiens, UniProt P04150); settings: literature, in words; cited from earlier work
T4 sequence (P04150 1-777): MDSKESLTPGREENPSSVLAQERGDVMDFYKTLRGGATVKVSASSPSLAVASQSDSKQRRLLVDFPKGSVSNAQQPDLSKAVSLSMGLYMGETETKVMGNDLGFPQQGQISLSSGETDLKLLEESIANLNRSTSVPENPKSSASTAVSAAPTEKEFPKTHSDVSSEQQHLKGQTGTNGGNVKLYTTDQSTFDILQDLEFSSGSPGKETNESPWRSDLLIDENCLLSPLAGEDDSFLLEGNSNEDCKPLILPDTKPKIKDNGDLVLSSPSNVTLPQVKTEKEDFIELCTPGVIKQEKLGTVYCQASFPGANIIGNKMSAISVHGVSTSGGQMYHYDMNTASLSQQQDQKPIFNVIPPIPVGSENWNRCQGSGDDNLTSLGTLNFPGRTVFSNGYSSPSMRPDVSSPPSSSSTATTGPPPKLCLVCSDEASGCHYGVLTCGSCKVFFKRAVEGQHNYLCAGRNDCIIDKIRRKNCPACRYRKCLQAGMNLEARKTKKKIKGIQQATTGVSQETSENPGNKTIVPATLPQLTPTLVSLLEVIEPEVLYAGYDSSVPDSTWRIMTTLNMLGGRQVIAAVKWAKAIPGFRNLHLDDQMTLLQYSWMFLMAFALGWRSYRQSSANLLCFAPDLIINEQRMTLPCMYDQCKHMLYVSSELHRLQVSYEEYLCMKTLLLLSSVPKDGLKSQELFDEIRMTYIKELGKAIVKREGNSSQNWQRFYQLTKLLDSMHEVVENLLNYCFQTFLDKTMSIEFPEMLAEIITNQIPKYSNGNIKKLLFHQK

Compound | IC50 [3] [nM] | other results
CC(=O)Nc1nc(C)c(S(=O)(=O)Nc2ccc(C(O)(C(F)(F)F)C(F)(F)F)cc2)s1 [SR1001] | – | action on RORα (RORα): 对RORγ和RORα有双重作用的反向激动剂
O=S(=O)(Nc1ccc(C(O)(C(F)(F)F)C(F)(F)F)cc1)c1cccs1 [SR3335] | – | action on RORα (RORα): RORα的选择性反向激动剂
O=S(=O)(c1ccccc1)N(CC(F)(F)F)c1ccc(C(O)(C(F)(F)F)C(F)(F)F)cc1 [T1317] | – | action on RORα (RORα): 可以与RORγ和RORα结合并调控它们的活性; action on other nuclear receptors [1]: 还与至少四种其他核受体 (LXRα/β,FXR,PXR)有作用
C[C@H]1O[C@@H](O[C@H]2[C@@H](O)C[C@H](O[C@H]3[C@@H](O)C[C@H](O[C@H]4CC[C@@]5(C)[C@H](CC[C@@H]6[C@@H]5C[C@@H](O)[C@]5(C)[C@@H](C7=CC(=O)OC7)CC[C@]65O)C4)O[C@@H]3C)O[C@@H]2C)C[C@H](O)[C@@H]1O [地高辛] | – | action on RORγ (RORγ): 可以作为RORγ的选择性调控物质; side effects [2]: 有很强的副作用
Cc1ccc(S(=O)(=O)Nc2ccc3c(c2)N(S(=O)(=O)c2ccc(F)cc2)CCC3)s1 [实施例5, N-(1-((4-氟苯基)磺酰基)-1,2,3,4-四氢-7-基)-5-甲基噻吩-2-磺酰胺] | 740 | –
O=S(=O)(Nc1ccc2c(c1)N(S(=O)(=O)c1ccc(F)cc1)CCC2)c1ccc2c(c1)OCCO2 [实施例8, N-(1-((4-氟苯基)磺酰基)-1,2,3,4-四氢喹啉-7-基)-2,3-二氢苯并[b][1,4] 二氧杂环己烯-6-磺酰胺] | 790 | –
O=S(=O)(Nc1ccc2c(c1)N(S(=O)(=O)c1ccc(F)cc1)CCO2)c1ccc2c(c1)OCCO2 [实施例12, N-(4-((4-氟苯基)磺酰基)-3,4-二氢-2H-苯并[b][1,4]恶嗪-6-基)-2,3-二氢苯并[b] [1,4]二氧杂环己烯-6-磺酰胺] | 690 | –
COC(=O)c1ccc(S(=O)(=O)Nc2ccc3c(c2)N(S(=O)(=O)c2ccc(F)cc2)CCC3)cc1 [实施例19, 4-(N-(1-((4-氟苯基)磺酰基)-1,2,3,4-四氢喹啉-7-基)氨磺酰)苯甲酸甲酯] | 880 | –
CS(=O)(=O)c1cccc(S(=O)(=O)Nc2ccc3c(c2)N(S(=O)(=O)c2ccc(F)cc2)CCC3)c1 [实施例22, N-(1-((4-氟苯基)磺酰基)-1,2,3,4-四氢喹啉-7-基)-3-(甲基磺酰基)苯磺酰胺] | – | inhibitory activity compared with reference drug [3]: 比对照药活性相当
COC(=O)c1ccc(CS(=O)(=O)Nc2ccc3c(c2)N(S(=O)(=O)c2ccc(F)cc2)CCC3)cc1 [实施例23, 4-((N-(1-((4-氟苯基)磺酰基)-1,2,3,4-四氢喹啉-7-基)氨磺酰)甲基)苯甲酸甲酯] | 940 | –
COC(=O)c1cccc(CS(=O)(=O)Nc2ccc3c(c2)N(S(=O)(=O)c2ccc(F)cc2)CCC3)c1 [实施例24, 3-((N-(1-((4-氟苯基)磺酰基)-1,2,3,4-四氢喹啉-7-基)氨磺酰)甲基)苯甲酸甲酯] | – | inhibitory activity compared with reference drug [3]: 比对照药活性相当
O=S(=O)(Nc1ccc2c(c1)N(S(=O)(=O)Cc1ccc(F)cc1)CCC2)c1ccc(F)cc1F [实施例28, 2,4-二氟-N-(1-((4-氟苄基)磺酰基)-1,2,3,4-四氢喹啉-7-基)苯磺酰胺] | 740 | –
COC(=O)c1cccc(CS(=O)(=O)N2CCCc3ccc(NS(=O)(=O)c4ccc(F)cc4F)cc32)c1 [实施例30, 3-(((7-(2,4-二氟苯基磺酰氨基)-3,4-二氢喹啉-1(2H)-基)磺酰基)甲基)苯甲酸甲酯] | 930 | –
COC(=O)c1ccccc1S(=O)(=O)N1CCCc2ccc(NS(=O)(=O)c3ccc(F)cc3F)cc21 [实施例31, 2-((7-(2,4-二氟苯基磺酰氨基)-3,4-二氢喹啉-1(2H)-基)磺酰基)苯甲酸甲酯] | 160 | inhibitory activity compared with reference drug [3]: 比对照药活性更好
O=S(=O)(Nc1ccc2c(c1)N(S(=O)(=O)c1cccs1)CCC2)c1ccc2c(c1)OCCO2 [实施例48, N-(1-(噻吩-2-基磺酰基)-1,2,3,4-四氢喹啉-7-基)-2,3-二氢苯并[b][1,4]二氧杂环己烯-6-磺酰胺] | 580 | –
COC(=O)c1ccccc1S(=O)(=O)N1CCCc2ccc(NS(=O)(=O)c3ccc4c(c3)OCCO4)cc21 [实施例52, 2-((7-(2,3-二氢苯并[b][1,4]二氧杂环己烯-6-磺酰基)-3,4-二氢喹啉-1(2H) -基)磺酰基)苯甲酸甲酯] | 700 | –
COC(=O)c1ccccc1S(=O)(=O)N1CCCc2ccc(NS(=O)(=O)c3cccc(Cl)c3F)cc21 [实施例53, 2-((7-(3-氯-2-氟苯基磺酰氨基)-3,4-二氢喹啉-1(2H)-基)磺酰基)苯甲酸甲酯] | 790 | –
COC(=O)c1ccccc1S(=O)(=O)N1CCCc2ccc(NS(=O)(=O)c3c(Cl)cccc3Cl)cc21 [实施例54, 2-((7-(2,6-二氯苯基磺酰氨基)-3,4-二氢喹啉-1(2H)-基)磺酰基)苯甲酸甲酯] | 230 | –
COC(=O)c1ccccc1S(=O)(=O)N1CCCc2ccc(NS(=O)(=O)c3ccc(OC)cc3)cc21 [实施例55, 2-((7-((4-甲氧基苯基)磺酰氨基)-3,4-二氢喹啉-1(2H)-基)磺酰基)苯甲酸甲酯] | 410 | –
COC(=O)c1ccccc1S(=O)(=O)N1CCCc2ccc(NS(=O)(=O)c3cc(OC)ccc3OC)cc21 [实施例56, 2-((7-((2,5-二甲氧基苯基)磺酰氨基)-3,4-二氢喹啉-1(2H)-基) 磺酰基)苯甲酸甲酯] | 160 | –
C[C@H]1[C@H](C)CC[C@]2(C(=O)O)CC[C@]3(C)C(=CC[C@@H]4[C@@]5(C)CC[C@H](O)C(C)(C)[C@@H]5CC[C@]43C)[C@H]12 [熊果酸] | – | action on glucocorticoid receptor [4]: 对糖皮质激素受体也有作用
N-(1-(噻吩-2-基磺酰基)-1,2,3,4-四氢喹啉-6-基)-2,3-二氢苯并[b][1,4]二氧杂环己烯 -6-磺酰胺 [实施例66] | 900 | –
